# Measured values reported in patent publication US9458219B2, “Human insulin analogue and acylated derivative thereof” (Shanghai Hengrui Pharmaceutical Co., Ltd., priority 2011, dated 2016).
# Tests used:
# [1] = tested on: rat models sufferring from diabetes (STZ); assay: In vivo long-acting activity assay of insulin derivatives; set-up: species or system Sprague-Dawley (SD) rats; settings: s.c., Humulin R 0.04, Detemir 0.2, others 0.1 mg/kg
# Experimental: The rats were fed in an environment of SPF level. […] 100 mg/kg STZ was intraperitoneally injected to establish rat models sufferring from diabetes. Two days later, fasting blood glucose values were measured. […] At the beginning of the experiment, rats were weigh, and the blood glucose levels were measured (cut off tails and the blood glucose levels were detected by using Roche Glucometer and the corresponding test strips, similarly hereafter). On the basis of blood glucose values, rats were randomly divided into groups, 43 rats per group. The drug to be used was prepared in required concentrations. After subcutaneous injection of drugs, blood glucose levels were measured at multiple time points. IP (Index of Prolongation) was calculated according to blood glucose level.
# [2] = tested on: rat models sufferring from diabetes (STZ); assay: In vivo long-acting activity assay of PEGylated insulin; set-up: species or system Sprague-Dawley (SD) rats; settings: for Blood glucose value (%): Humulin R 0.04, Detemir 0.2, PEG insulins 0.1 mg/kg; for AOC % / IP (Index of Prolongation): s.c.
# Experimental: Sprague-Dawley (SD) rats, male, used in this experiment were purchased from SINO-BRITSH SIPPR/BK LAB. ANIMAL LTD., CO, License number: SCXK (Shanghai) 2008-0016, 18-20 g. The rats were fed in an environment of SPF level. ICR male mice were fed three days in a laboratory environment, at temperature of 20-25° C., and humidity of 40-60%. The mice were fasted for 8 hrs before the experiment. 100 mg/kg STZ was intraperitoneally injected to establish rat models sufferring from diabetes. Two days later, fasting blood glucose values were measured. […] At the beginning of the experiment, rats were weigh, and the blood glucose levels were measured (cut off tails and the blood glucose levels were detected by using Roche Glucometer and the corresponding test strips, similarly hereafter). On the basis of blood glucose values, rats were randomly divided into groups, 43 rats per group. The drug to be used was prepared in required concentrations. After subcutaneous injection of drugs, blood glucose levels were measured at multiple time points. IP (Index of Prolongation) was calculated according to blood glucose level.
# [3] = Table 5, Humulin R 0.04, Detemir 0.2, PEG (20 kD) insulins 0.1 mg/kg
# [4] = Table 6, Humulin R 0.04, Detemir 0.2, PEG (30/40 kD) insulins 0.1 mg/kg
substance,measurement,setting,value
Detemir,Blood glucose level (%),[1]; 0 h,100.00%
same,Blood glucose level (%),[1]; 0.5 h,72.21%
same,Blood glucose level (%),[1]; 1 h,35.57%
same,Blood glucose level (%),[1]; 2 h,14.45%
same,Blood glucose level (%),[1]; 4 h,16.32%
same,Blood glucose level (%),[1]; 6 h,23.80%
same,Blood glucose level (%),[1]; 8 h,34.77%
same,Blood glucose level (%),[1]; 10 h,51.42%
same,Blood glucose level (%),[1]; 12 h,39.68%
same,Blood glucose level (%),[1]; 14 h,58.06%
same,Blood glucose level (%),[1]; 16 h,74.84%
same,Blood glucose level (%),[1]; 18 h,91.67%
same,Blood glucose level (%),[1]; 20 h,99.05%
same,AOC,[1],69.2
same,IP (Index of Prolongation),[1],100
same,Blood glucose value (%),"[2]; Table 5, 0 h",100%
same,Blood glucose value (%),"[2]; Table 5, 1 h",96.63%
same,Blood glucose value (%),"[2]; Table 5, 2 h",57.24%
same,Blood glucose value (%),"[2]; Table 5, 4 h",32.49%
same,Blood glucose value (%),"[2]; Table 5, 6 h",40.98%
same,Blood glucose value (%),"[2]; Table 5, 8 h",86.94%
same,Blood glucose value (%),"[2]; Table 5, 10 h",112.66%
same,Blood glucose value (%),"[2]; Table 5, 12 h",127.52%
same,AOC %,[2]; [3],7.39%
same,IP (Index of Prolongation),[2]; [3],100
same,AOC %,[2]; [4],5.92%
same,IP (Index of Prolongation),[2]; [4],100
same,Blood glucose value (%),"[2]; Table 6, time 0",100.00%
same,Blood glucose value (%),"[2]; Table 6, time 1",104.15%
same,Blood glucose value (%),"[2]; Table 6, time 2",74.83%
same,Blood glucose value (%),"[2]; Table 6, time 3",46.46%
same,Blood glucose value (%),"[2]; Table 6, time 4",23.36%
same,Blood glucose value (%),"[2]; Table 6, time 6",17.11%
same,Blood glucose value (%),"[2]; Table 6, time 8",32.52%
same,Blood glucose value (%),"[2]; Table 6, time 10",94.89%
same,Blood glucose value (%),"[2]; Table 6, time 12",110.45%
